Where two headings read alike, the source gives them in different places.
Assay: physchem
Assay type: physicochemical
Settings: for chromatographic logP: read-out: logP
Experimental: ^a) Note regarding the determination of the log P values and mass detection: The log P values given were determined in accordance with EEC Directive 79/831 Annex V.A8 by HPLC (High Performance Liquid Chromatography) on a phase inversion column (C18). Agilent 1100 LC system; 50*4.6 Zorbax Eclipse Plus C18 1.8 micron; eluent A: acetonitrile (0.1% formic acid); eluent B: water (0.09% formic acid); linear gradient from 10% acetonitrile to 95% acetonitrile in 4.25 min, then 95% acetonitrile for a further 1.25 min; oven temperature 55° C.; flow: 2.0 ml/min. The mass detection is carried out via an Agilend MSD system.

[1] = HPLC phase inversion (reversed-phase) C18 column, HPLC method a), eluent acetonitrile/water with formic acid

Compound | logP | also measured
O=C(NCC=CCl)c1cc(NC(=O)c2cnc(C(F)(F)C(F)(F)F)nc2C(F)(F)F)ccc1Cl [Ib-10] | 3.59^a) | 
O=C(NCc1ccccc1)c1cc(NC(=O)c2cnc(C(F)(F)C(F)(F)F)nc2C(F)(F)F)ccc1Cl [Ib-11] | 3.78^a) | 
Cc1nc(C(F)(F)C(F)(F)F)nc(C)c1C(=O)Nc1ccc(Cl)c(C(=O)NCC(F)(F)F)c1 [Ib-12] | 3.22^a) | 
Cc1nc(C(F)(F)C(F)(F)F)nc(C)c1C(=O)Nc1ccc(Cl)c(C(=O)NCC=CCl)c1 [Ib-13] | 3.26^a) | 
Cc1nc(C(F)(F)C(F)(F)F)nc(C)c1C(=O)Nc1ccc(Cl)c(C(=O)NCc2ccccc2)c1 [Ib-14] | 3.49^a) | 
O=C(NC1CC1)c1cc(NC(=O)c2cnc(C(F)(F)C(F)(F)C(F)(F)F)nc2C(F)(F)F)ccc1Cl [Ib-15] | 3.56^a) | 
O=C(NCC(F)(F)F)c1cc(NC(=O)c2cnc(C(F)(F)C(F)(F)C(F)(F)F)nc2C(F)(F)F)ccc1Cl [Ib-16] | 3.88^a) | 
O=C(NCC=CCl)c1cc(NC(=O)c2cnc(C(F)(F)C(F)(F)C(F)(F)F)nc2C(F)(F)F)ccc1Cl [Ib-17] | 3.92^a) | 
O=C(NCc1ccccc1)c1cc(NC(=O)c2cnc(C(F)(F)C(F)(F)C(F)(F)F)nc2C(F)(F)F)ccc1Cl [Ib-18] | 4.13^a) | 
Cc1nc(C(F)(F)F)ncc1C(=O)Nc1ccc(Cl)c(C(=O)NC2CC2)c1 [Ib-19] | 2.24v | 
Cc1nc(C(F)(F)F)ncc1C(=O)Nc1ccc(Cl)c(C(=O)NCC(F)(F)F)c1 [Ib-20] | 2.65^a) | 
Cc1nc(C(F)(F)F)ncc1C(=O)Nc1ccc(Cl)c(C(=O)NCC=CCl)c1 [Ib-21] | 2.69^a) | 
Cc1nc(C(F)(F)F)ncc1C(=O)Nc1ccc(Cl)c(C(=O)NCc2ccccc2)c1 [Ib-22] | 2.94^a) | 
Cc1nc(C(F)(F)C(F)(F)F)ncc1C(=O)Nc1ccc(Cl)c(C(=O)NC2CC2)c1 [Ib-23] | 2.76^a) | 
Cc1nc(C(F)(F)C(F)(F)F)ncc1C(=O)Nc1ccc(Cl)c(C(=O)NCC(F)(F)F)c1 [Ib-24] | 3.16^a) | 
Cc1nc(C(F)(F)C(F)(F)F)ncc1C(=O)Nc1ccc(Cl)c(C(=O)NCC=CCl)c1 [Ib-25] | 3.2^a) | 
Cc1nc(C(F)(F)C(F)(F)F)ncc1C(=O)Nc1ccc(Cl)c(C(=O)NCc2ccccc2)c1 [Ib-26] | 3.43^a) | 
O=C(NCC(F)(F)F)c1cc(NC(=O)c2cnc(C(F)(F)C(F)(F)F)nc2C(F)F)ccc1Cl [Ib-28] | 3.27^a) | 
O=C(NCc1ccccc1)c1cc(NC(=O)c2cnc(C(F)(F)C(F)(F)F)nc2C(F)F)ccc1Cl [Ib-29] | 3.51^a) | 
O=C(NC1CC1)c1cc(NC(=O)c2cnc(C(F)(F)C(F)(F)F)nc2C2CC2)ccc1Cl [Ib-30] | 3.28^a) | 
O=C(NCC(F)(F)F)c1cc(NC(=O)c2cnc(C(F)(F)C(F)(F)F)nc2C2CC2)ccc1Cl [Ib-31] | 3.65^a) | 
O=C(NCC=CCl)c1cc(NC(=O)c2cnc(C(F)(F)C(F)(F)F)nc2C(F)F)ccc1Cl [Ib-32] | 3.29^a) | 
O=C(NC1CC1)c1cc(NC(=O)c2cnc(C(F)(F)C(F)(F)F)nc2C(F)(F)C(F)(F)F)ccc1Cl [Ib-33] | 3.64^a) | 
O=C(NCC(F)(F)F)c1cc(NC(=O)c2cnc(C(F)(F)C(F)(F)F)nc2C(F)(F)C(F)(F)F)ccc1Cl [Ib-34] | 3.94^a) | 

Compound | logP | also measured
O=C(NCc1ccccc1)c1cc(NC(=O)c2cnc(C(F)(F)C(F)(F)F)nc2C(F)(F)C(F)(F)F)ccc1Cl [Ib-35] | 4.20^a) | 
O=C(Nc1cc(Br)c(Cl)c(C(=O)NC2CC2)c1)c1cnc(C(F)(F)C(F)(F)F)nc1C(F)(F)F [Ib-36] | 3.62^a) | 
CC(NC(=O)c1cc(NC(=O)c2cnc(C(F)(F)C(F)(F)F)nc2C(F)(F)F)ccc1Cl)C1CC1 (centres unmarked) [Ib-37] | 3.76^a) | 
CN(C(=O)c1cnc(C(F)(F)C(F)(F)F)nc1C(F)(F)F)c1ccc(Cl)c(C(=O)NC2CC2)c1 [Ib-38] | 3.23^a) | 
O=C(NC1CC1)c1cc(NC(=O)c2nccc(C(F)(F)F)c2Cl)ccc1Cl [Ie-1] | 2.48^a) | 
CC(C)NC(=O)c1cc(NC(=O)c2nccc(C(F)(F)F)c2Cl)ccc1Cl [Ie-2] | 2.72^a) | 
O=C(NCC(F)(F)F)c1cc(NC(=O)c2nccc(C(F)(F)F)c2Cl)ccc1Cl [Ie-3] | 2.88^a) | 
O=C(NCC=CCl)c1cc(NC(=O)c2nccc(C(F)(F)F)c2Cl)ccc1Cl [Ie-4] | 2.92^a) | 
O=C(NCc1ccccc1)c1cc(NC(=O)c2nccc(C(F)(F)F)c2Cl)ccc1Cl [Ie-5] | 3.16^a) | 
CC(C)NC(=O)c1cc(NC(=O)c2ncc(C(F)(F)F)cc2Cl)ccc1Cl [Ii-2] | 2.73^a) | 
O=C(NCC(F)(F)F)c1cc(NC(=O)c2ncc(C(F)(F)F)cc2Cl)ccc1Cl [Ii-3] | 2.86^a) | 
O=C(NCC=CCl)c1cc(NC(=O)c2ncc(C(F)(F)F)cc2Cl)ccc1Cl [Ii-4] | 2.93^a) | 
O=C(NCc1ccccc1)c1cc(NC(=O)c2ncc(C(F)(F)F)cc2Cl)ccc1Cl [Ii-5] | 3.17^a) | 
O=C(NC1CC1)c1cc(NC(=O)c2ncc(OCC(F)(F)F)cc2C(F)(F)F)ccc1Cl [Ii-7, N-[4-Chloro-3-(cyclopropylcarbamoyl)phenyl]-5-(2,2,2-trifluoroethoxy)-3-(trifluoromethyl)pyridine-2-carboxamide] |  | chromatographic logP [1]: 2.9
CC(Oc1cc(C(F)(F)F)c(C(=O)Nc2ccc(Cl)c(C(=O)NC3CC3)c2)cn1)C(F)(F)F (centres unmarked) [Ij-2] | 3.32^a) | 
O=C(NC1CC1)c1cc(NC(=O)c2cnc(OCC(F)(F)C(F)(F)F)cc2C(F)(F)F)ccc1Cl [Ij-3] | 3.44^a) | 
Cn1nc(C(F)(F)C(F)(F)F)c(C(F)(F)F)c1C(=O)Nc1ccc(Cl)c(C(=O)O)c1 [Ik-2, 2-Chloro-5-({[1-methyl-3-(pentafluoroethyl)-4-(trifluoromethyl)-1H-pyrazol-5-yl]carbonyl}amino)benzoic acid] |  | chromatographic logP [1]: 3.22; chromatographic logP (HPLC phase inversion (reversed-phase) C18 column, HPLC, method a)): 3.22
Cn1nc(C(F)(F)C(F)(F)F)c(C(F)(F)F)c1C(=O)Nc1cc(Br)c(Cl)c(C(=O)NC2CC2)c1 [Ik-7] | 3.81^a) | 
CC(NC(=O)c1cc(NC(=O)c2c(Br)c(C(F)(F)C(F)(F)F)nn2C)ccc1Cl)C(F)(F)F (centres unmarked) [Ik-11] | 2.00^a) | 
CC(NC(=O)c1cc(NC(=O)c2c(Br)c(C(F)(F)C(F)(F)F)nn2C)ccc1Cl)C1CC1 (centres unmarked) [Ik-12] | 3.84^a) | 
Cn1nc(C(F)(F)C(F)(F)F)c(C(F)(F)F)c1C(=O)Nc1cccc(C(=O)NC2CC2)c1 [Ik-13] | 3.15^a) | 
Cn1nc(C(F)(F)C(F)(F)F)c(C(F)(F)F)c1C(=O)Nc1cccc(C(=O)NCc2ccccc2)c1 [Ik-14] | 3.77^a) | 
Cn1nc(C(F)(Cl)C(F)(F)F)c(Br)c1C(=O)Nc1ccc(Cl)c(C(=O)NC2CC2)c1 (centres unmarked) [Ik-16] | 3.35^a) | 
Cn1nc(C(F)(F)C(F)(F)F)cc1C(=O)Nc1ccc(Cl)c(C(=O)NC2CC2)c1 [Ik-17] | 2.94^a) | 

Compound | logP | also measured
Cn1nc(C(F)(F)F)c(Cl)c1C(=O)Nc1ccc(Cl)c(C(=O)NC2CC2)c1 [Ik-18] | 2.77^a) | 
Cn1nc(C(F)(F)F)c(Cl)c1C(=O)Nc1ccc(Cl)c(C(=O)NCC=CCl)c1 [Ik-19] | 3.22^a) | 
Cn1nc(C(F)(F)F)c(Cl)c1C(=O)Nc1ccc(Cl)c(C(=O)NCc2ccccc2)c1 [Ik-20] | 3.46^a) | 
Cn1nc(C(F)(F)F)c(Br)c1C(=O)Nc1ccc(Cl)c(C(=O)NC2CC2)c1 [Ik-21] | 2.75^a) | 
Cn1nc(C(F)(F)F)c(Br)c1C(=O)Nc1ccc(Cl)c(C(=O)NCC=CCl)c1 [Ik-22] | 3.20^a) | 
Cn1nc(C(F)(F)F)c(Br)c1C(=O)Nc1ccc(Cl)c(C(=O)NCc2ccccc2)c1 [Ik-23] | 3.44^a) | 
Cn1nc(C(F)(F)C(F)(F)F)c(C(F)(F)F)c1C(=O)Nc1ccc(Cl)c(C(=O)NS(C)(=O)=O)c1 [Ik-24] | 3.13^a) | 
Cn1nc(C(F)(F)C(F)(F)F)c(C(F)(F)F)c1C(=O)Nc1ccc(OC(F)F)c(C(=O)NC2CC2)c1 [Ik-25] | 3.49^a) | 
Cn1nc(C(F)(F)C(F)(F)F)c(Br)c1C(=O)Nc1ccc(Cl)c(C(=O)NC2CC2)c1 [Ik-26] | 3.22^a) | 
CC(C)NC(=O)c1cc(NC(=O)c2c(Br)c(C(F)(F)C(F)(F)F)nn2C)ccc1Cl [Ik-27] | 3.49^a) | 
Cn1nc(C(F)(F)C(F)(F)F)c(Br)c1C(=O)Nc1ccc(Cl)c(C(=O)NCC=CCl)c1 [Ik-28] | 3.64^a) | 
Cn1nc(C(F)(F)F)cc1C(=O)Nc1ccc(Cl)c(C(=O)NC2CC2)c1 [Ik-71] | 2.48^a) | 
Cn1nc(C(F)(F)C(F)(F)C(F)(F)F)c(Br)c1C(=O)Nc1ccc(Cl)c(C(=O)NC2CC2)c1 [Ik-73] | 3.58^a) | 
CC(C)NC(=O)c1cccc(NC(=O)c2c(C(F)(F)F)c(C(F)(F)C(F)(F)F)nn2C)c1Cl [Ik-77] | 3.47^a) | 
Cn1nc(C(F)(F)C(F)(F)F)c(C(F)(F)F)c1C(=O)Nc1ccc(Cl)c(C(=O)NCc2ccc(F)cn2)c1 [Ik-80] | 4.75^a) | 
CC#CC(C)(C)NC(=O)c1cc(NC(=O)c2c(C(F)(F)F)c(C(F)(F)C(F)(F)F)nn2C)ccc1Cl [Ik-81] | 4.03^a) | 
CSCCNC(=O)c1cc(NC(=O)c2c(C(F)(F)F)c(C(F)(F)C(F)(F)F)nn2C)ccc1Cl [Ik-82] | 3.57^a) | 
Cn1nc(C(F)(F)C(F)(F)F)c(C(F)(F)F)c1C(=O)Nc1ccc(Cl)c(C(=O)NCC=CCl)c1 [Ik-83] | 3.72^a) | 
Cn1nc(C(F)(F)C(F)(F)F)c(C(F)(F)F)c1C(=O)Nc1ccc(Cl)c(C(=O)NCc2ccccc2)c1 [Ik-84] | 3.90^a) | 
CNC(=O)c1cc(NC(=O)c2c(C(F)(F)F)c(C(F)(F)C(F)(F)F)nn2C)ccc1Cl [Ik-85] | 3.04^a) | 
Cn1nc(C(F)(F)C(F)(F)F)c(C(F)(F)F)c1C(=O)Nc1ccc(Cl)c(C(=O)NCC(F)F)c1 [Ik-86] | 3.41^a) | 
Cn1nc(C(F)(F)C(F)(F)F)c(C(F)(F)F)c1C(=O)Nc1ccc(Cl)c(C(=O)NCC(F)(F)F)c1 [Ik-87] | 3.67^a) | 
